Paper PMC7954794, “Protein context shapes the specificity of SH3 domain-mediated interactions in vivo” (Nature Communications, 2021)

Experiments:
Type in all cases: cell-based, Saccharomyces cerevisiae
Abp1 PPIs = assay: DHFR-PCA of Abp1 SH3-swapped baits (Fig. 2B-D, S2C, S2F); settings: number of interactions of Abp1 carrying the named SH3; sheet FigS2A-B
From the text: Having determined that multiple PPIs require SH3s, we asked whether the latter establish PPI specificity independently from their host proteins by swapping domains (Fig. 2A). Using the second round of genome editing, we individually replaced Abp1 SH3 with the 27 yeast SH3s and 3 human Abp1 orthologs’ SH3s (CTTN, HCLS1, and DBNL, Fig. 2B). The reintroduction of its own SH3 (Abp1SH3 in Abp1) reconstitutes almost perfectly Abp1’s interaction profile (Kendall’s τ = 0.93, Fig. 2B). […] No homologous SH3 domain fully re-establishes the normal Abp1 PPI profile (Fig. 2B and Supplementary Fig. 2C). However, we observe a significant correlation (cophenetic correlation = 0.20, p value = 0.005, Fig. 2C) between the similarity of PPI profiles (Fig. 2B) and the sequence similarity of the SH3s. […] Nonetheless, a subset of SH3-dependent PPIs is only observed with the endogenous domain. For instance, Hua2 and App1, both well-characterized partners of Abp1[14],[18],[19], are only detected when Abp1 contains its own SH3 (WT or swapped via editing). A given SH3 may therefore not be fully replaceable with other paralogous or orthologous domains. This pattern is confirmed by cellular growth phenotypic analyses (Supplementary Fig. 2D, E). PPIs, SH3 sequence similarity, and growth profiles under stress conditions are correlated (Supplementary Fig. 2D, E). This relationship is particularly clear when analyzing growth on media supplemented with hygromycin.
The stuffing of YSC84 SH3 rendered the strain sterile and was therefore not used for this study as the assays require crosses. For genes containing two SH3s (BZZ1 and BEM1), a combination of this first stuffer with a second one ([…]) coding for a highly similar linker ([…]) was used, which allowed targeting each SH3 position independently. The two N-terminal domains of SLA1, which are separated by six nucleotides, were stuffed by a single stuffer. Cells containing pCAS were selected via the G418 resistance cassette from the plasmid on YPD plates (YPD + NAT 100 μg/ml (DHFR F[1,2] selection) + G418 200 µg/mL (Bioshop Canada)). Colonies were randomly selected and grown in YPD media without G418 to allow plasmid loss. The correct insertion of the stuffer was validated by PCR and Sanger sequencing. The SH3-swapped, -shuffled, and -mutated strains were constructed following a second CRISPR–Cas9 editing step with the same procedures. The stuffer sequences were targeted by specific gRNAs (one gRNA per stuffer) and replaced by PCR amplified specific SH3 (with 40 bp homology arms) or libraries of mutated SH3 domains for Deep Mutational Scanning (DMS) with 78 bp flanking homology regions. Validation of the SH3 domain insertions was done as we previously described except for DMS libraries (see below).
The overall DHFR-PCA pipeline is based on Tarassov et al.[43] and the procedures have also been published as a visualized protocol. The screens were performed with robotically manipulated pin tools (BM5-SC1, S&P Robotics Inc.). First, the preys were cherry-picked from 96-well plates to omnitrays in a 384 format on YPD + HPH solid media. Plates were then combined into the 1536 format on YPD + HPH. The array was constituted of 575 preys previously shown to interact physically with at least one SH3-containing protein as reported in BioGRID V3.4.16 along with 40 negative controls. The prey array comprised a border of control strains of two rows and two columns corresponding to the PPI between LSM8-DHFR F[1,2] and CDC39-DHFR F[3]. This double border was used to remove border effects. Preys are present in duplicate at a randomized position in the 1536 array (except for YAL041W which is present four times per array). Baits were crossed with two prey plates, resulting in four independent bait–prey tests for each PPI. Baits were grown in liquid YPD + NAT and then transferred on solid YPD + NAT omnitrays. They were then replicated on YPD + NAT omnitrays in 1536 array format. […]

Abp1 (1xFLAG) = assay: Western blot expression level of Abp1 SH3-swapped baits (Fig. S2A-B); design: Flag (2 bands): unit not given here; settings: sheet FigS2A-B; for Ratio Swap/WT Flag: Flag signal relative to Abp1 WT (Abp1-1 to Abp1-4 = 1); for Flag (2 bands): Western blot Flag signal (2 bands), Abp1 WT, SH3-deleted or SH3-swapped
Procedure: Precultures of yeast cells expressing baits fused with the DHFR F[1,2]-FLAG were grown overnight at 30 °C with agitation in synthetic complete medium. The next day, cells were expanded in synthetic complete medium to reach their exponential phase (OD600 of around 1.0), pelleted, and frozen at −80 °C. The equivalent of fifty OD600 of cells was resuspended in ice-cold yeast lysis buffer (10 mM Tris-HCl pH 7.4, 150 mM NaCl, 0.5 mM EDTA (Millipore Sigma), 1% Triton X-100 (Millipore Sigma), and one cOmplete Mini Protease Inhibitor Cocktail (Millipore Sigma) per 10 mL) with […] glass beads (Millipore Sigma) and disrupted at 4 °C by 10 cycles of 2 min vortexing and 2 min cooldown. The equivalent of […] of lysed cells was used for the immunoprecipitation of the bait proteins using FLAG-M2 agarose beads (Millipore Sigma). The beads were incubated with the cell lysates for 120 min at 4 °C with a slow rotation, followed by three washes with the yeast lysis buffer.
Protein extracts and affinity-purified baits from yeast and human lysed cells were migrated on 10% polyacrylamide gels. The separated proteins were then transferred to nitrocellulose membranes. Validation of correct protein loading was done with ponceau staining of the membranes. Before the primary antibody incubations, membranes were blocked in 5% milk. Protein signals were detected on an Amersham Imager 600RGB (GE Healthcare) following the incubation of the membranes with the appropriate HRP-conjugated secondary antibodies and the Clarity Western ECL Substrate (Bio-Rad). The antibodies used in this study are M2-HRP (A8592, Sigma, 1/50,000), rabbit anti-FLAG (F7425, Sigma, 1/1000), PAK (SC-881, Santa Cruz, 1/200), p130cas/BCAR1 (SC-860, Santa Cruz, 1/200), actin (Cell Signaling Technology, 1/2000), anti-mouse HRP (Cell Signaling Technology, 1/10,000) and anti-rabbit HRP (Cell Signaling Technology, 1/10,000). The quantification of the WB signals was performed with the Amersham Imager 600 analysis software (GE Healthcare).

[1] = tested on: 575 putative partners (preys) of 22 WT SH3-containing proteins; assay: DHFR-PCA on solid medium, WT and SH3-deleted baits (Fig. 1B); design: key to Score: 0: SH3-independent; 1: SH3-dependent PPIs; 2: SH3-inhibited PPIs; settings: for medrep (log2 median colony size normalized to plate background, PCA score): bait SLA1-3, DHFR-PCA, label = prey, Replicates 4 (2 for YCR009C, YDR388W, YIL033C); for Score: bait SLA1-3, label = prey
From the text: To assess the requirement of SH3 domains for PPIs in vivo, we first measured binary interactions between 22 WT SH3-containing proteins (Supplementary Fig. 1A) as baits and 575 putative partners from their interconnected signaling networks using the dihydrofolate reductase protein–fragment complementation assay (DHFR-PCA) in the budding yeast Saccharomyces cerevisiae. About 33% (202/607) of the PPIs detected were described before, mostly by direct methods (Supplementary Fig. 1B, C)[11]. We repeated the experiments with baits in which the SH3s were individually replaced with a flexible linker by genome editing (SH3 domain deletion/stuffing, Fig. 1A). The stuffer DNA sequence ([…]) codes for a small flexible poly-Gly with Ser peptide ([…]) that is inspired by previous experiments[12],[13]. About a third of the SH3-containing protein interactome is qualitatively or quantitatively SH3-dependent (171 PPIs out of 607, Fig. 1B and Supplementary Fig. 1B, C). We validated the vast majority of the quantitative changes in low-throughput experiments and excluded that this is simply due to changes in protein abundance in most cases (Supplementary Fig. 1D–G). SH3-binding motifs[14] are more frequent in the SH3-dependent PPI partners when compared to sequences from random proteins, SH3-independent PPI partners or PPI partners that are stronger or gained following SH3 deletions (p values = 1.5 × 10^−17, 0.0038 and 2.1 × 10^−08, respectively; Mann–Whitney test, one-tailed, Fig. 1C). The changes we measure are therefore enriched for PPIs that depend on the direct interactions of the domains with the PPI partners.
The complete list of strains, primers, and gRNAs used in this study can be found in Supplementary Tables 1–3. All constructed yeast strains were validated by polymerase chain reaction (PCR) and confirmed by Sanger sequencing of the locus of interest. Bait strains for the DHFR-PCA experiments were constructed as follows. The genes of interest were fused at their genomic 3′ end by replacing the stop codon with a linker ([…]), the DHFR F[1,2] followed by a smaller linker (GGGGS), a 1× FLAG tag ([…]) and the NATMX4 resistance cassette via homologous recombination (all amplified from pAG25-DHFR[1,2]-linker-FLAG). The set of 615 prey strains (DHFR F[3] fusions in the BY4742 background) were retrieved from the Yeast Protein Interactome Collection[43] with the exception of 73 that were reconstructed (Supplementary Tables 1 and 2). Knockout strains were taken from the yeast knockout collection except for ABP1, BEM1, BZZ1, and SLA1, which were reconstructed by replacing the ORFs with the NATMX4 resistance cassette by homologous recombination in the BY4741 background.
Yeast SH3 domain genomic sequences were replaced by CRISPR–Cas9 genome editing. Each SH3 domain (as defined by the SMART database V8.0 except for Ysc84 SH3 (as defined by PROSITE), see Source Data for all SH3 sequences and Supplementary Table 1 for primers used) was specifically targeted by one gRNA[46]. Yeast competent cells were co-transformed with a pCAS plasmid (Addgene plasmid 60847[47]) expressing both the gRNA of interest and Streptococcus pyogenes Cas9[46] and a donor DNA sequence (stuffer) with 60 bp homology arms surrounding the SH3 DNA sequence. The Stuffer DNA was either PCR amplified or digested from a plasmid. The stuffer DNA sequence ([…]) codes for a small flexible linker ([…]) inspired by protein linkers used in structural biology[12],[13]. This type of linker is frequently used for fusing proteins without affecting the structure of the linked proteins.
The overall DHFR-PCA pipeline is based on Tarassov et al.[43] and the procedures have also been published as a visualized protocol. The screens were performed with robotically manipulated pin tools (BM5-SC1, S&P Robotics Inc.). First, the preys were cherry-picked from 96-well plates to omnitrays in a 384 format on YPD + HPH solid media. […]

ABP1 = assay: DHFR-PCA on solid medium, bait ABP1 (Fig. 1B); settings: bait ABP1, label = prey; 2-4 replicates
From the text: (§1) Supplement 41467_2021_21873_MOESM8_ESM.xlsx, sheet "Fig1B" | column: medsize; medrep; Ratio; Score

BBC1 = assay: DHFR-PCA on solid medium, bait BBC1 (Fig. 1B); settings: bait BBC1, label = prey; 2-4 replicates
From the text: as §1

BEM1-1 = assay: DHFR-PCA on solid medium, bait BEM1-1 (Fig. 1B); settings: bait BEM1-1, label = prey; 2-8 replicates
From the text: as §1

BEM1-2 = assay: DHFR-PCA on solid medium, bait BEM1-2 (Fig. 1B); settings: bait BEM1-2, label = prey; 2-8 replicates
From the text: as §1

BOI2 = assay: DHFR-PCA on solid medium, bait BOI2 (Fig. 1B); settings: bait BOI2, label = prey; 3-8 replicates
From the text: as §1

BUD14 = assay: DHFR-PCA on solid medium, bait BUD14 (Fig. 1B); settings: bait BUD14, label = prey; for medrep (log2 median colony size normalized to plate background, PCA score): 4 replicates
From the text: as §1

BZZ1-1 = assay: DHFR-PCA on solid medium, bait BZZ1-1 (Fig. 1B); settings: bait BZZ1-1, label = prey; 4 replicates
From the text: Supplement 41467_2021_21873_MOESM8_ESM.xlsx, sheet "Fig1B" | column: medsize; medrep; Score

BOI1 = assay: DHFR-PCA on solid medium, bait BOI1 (Fig. 1B); settings: bait BOI1, label = prey
From the text: as §1

[2] = only significant differences showed, PPIs completely lost have a ratio of 0.1 and the gained PPIs 2.5

| Substance | Interactions in Abp1 (Abp1 PPIs) | Ratio Swap/WT Flag (Abp1 (1xFLAG)) | Flag (2 bands) (Abp1 (1xFLAG)) | medrep (log2 median colony size normalized to plate background, PCA score) [1] | Score [1] | medrep (log2 median colony size normalized to plate background, PCA score) (ABP1) | medrep (log2 median colony size normalized to plate background, PCA score) (BBC1) | medrep (log2 median colony size normalized to plate background, PCA score) (BEM1-1) | medrep (log2 median colony size normalized to plate background, PCA score) (BEM1-2) | medrep (log2 median colony size normalized to plate background, PCA score) (BOI2) | medrep (log2 median colony size normalized to plate background, PCA score) (BUD14) | Ratio (SH3-deleted/WT medrep) (BUD14; [2]) | medrep (log2 median colony size normalized to plate background, PCA score) (BZZ1-1) | medrep (log2 median colony size normalized to plate background, PCA score) (BOI1; 3-8 replicates) | Ratio (SH3-deleted/WT medrep) (BOI1; [2]) |
| --- | --- | --- | --- | --- | --- | --- | --- | --- | --- | --- | --- | --- | --- | --- | --- |
| Cdc25 | 27 | 0.6887 | 152280 |  |  |  |  |  |  |  |  |  |  |  |  |
| YBR234C |  |  |  | 5.2 | 0 | 5.488 | 5.076 | 2.151 | 2.151 | 2.566 | 1.638 | 0.1 | 4.45 |  |  |
| Rvs167 | 91 | 0.1645 | 38158 |  |  |  |  |  |  |  |  |  |  |  |  |
| YDL229W |  |  |  | 5.405 | 0 | 5.461 | 5.103 | 3.594 | 3.594 | 3.977 | 3.548 |  | 4.468 | 2.407 | 2.5 |
